Article PMC7259758 (PLoS ONE, 2020)

Key:
phosphorylation of SF3B1 = experiment: Western blot of nuclear extracts, phosphor-SF3B1; conditions: HCT116 and Rh18 cells, 4 h; SD6 10 μM, compound 1 10 μM, compound 2 5 μM
Description: (§3) HCT116 cells were seeded at 3 million cells per 100 mm culture plate. The next day cells were treated with 5 μM or 10 μM of each compound for 4h and 8h. […] The pellet was snap frozen on dry ice and then thawed and spun at 12K rpm for 5 min, 4C. The supernatant was collected (nuclear extract) and protein concentrations determined using BCA Protein Assay Kit. […] The proteins were transferred to PVDF membrane using a wet transfer system. […] After the secondary antibody incubation, membranes were washed 4X with PBS containing 0.1% Tween-20 and 1X with PBS before imaging using the Li-Cor Odyssey imaging system.
(§4) Lanes 6 to 10 are nuclear extracts from Rh18 cells.

PAK4 (h) = biological target: T1, PAK4 (h) (Homo sapiens, UniProt O96013); experiment: Radiometric protein kinase assay (Eurofins); type: biochemical; conditions: 40 min; ATP 10 μM; read-out: PAK4 IC50
T1 construct: purchased Eurofins, Dundee, Scotland
Description: (§5) Enzymatic biochemical activities were evaluated in radiometric protein kinase assays (Eurofins, Dundee, Scotland). Kinases are incubated with buffer, substrate and [γ-^33P]-ATP (specific activity approx. 500 cpm/pmol, concentration as required). The reaction is initiated by the addition of the MgATP mix. After incubation for 40 minutes at room temperature, the reaction is stopped by the addition of 3% phosphoric acid solution. 10 μL of the reaction is then spotted onto a P30 filtermat and washed three times for 5 minutes in 75 mM phosphoric acid and once in methanol prior to drying and scintillation counting. All compounds are prepared to 50x final assay concentration in 100% DMSO. Positive control wells contain all components of the reaction with 2% DMSO. Blank wells contain all components of the reaction, with a reference inhibitor replacing the compound of interest. […] Compounds were screened at 1 μM in duplicate or tested at 10 concentrations at half log dilution starting from 10 μM in singlicate. Dose response curves were fitted with four parameter logistic curve to obtain IC50 values.

[1] = test system: MDM2 pre-mRNA splicing in Rh18 cells; experiment: RT-PCR confirmation of splicing changes, MDM2; type: cell-based; conditions: 4 h, SD6 10 μM, compound 1 10 μM, compound 2 5 μM, compound 3 10 μM
Description: RH-18 cells were cultured in RPMI 1640 medium containing 10% FCS. Cells are all maintained in humidified incubator with 5% CO2 at 37°C. Rh18 cells were exposed to 0.5% DMSO or SD6 10 μM, Cpd1 10 μM, Cpd2 5 μM or Cpd3 10 μM for 4 h. Total RNA was extracted and converted to cDNA. PCR was performed using NEB Q5 Master Mix and specific primers listed below (Table 2) according to the manufacturer’s instruction and standard PCR protocols: 50 ng cDNA and 30 μl of the final reaction volume was used. PCR products were subjected to 3% agarose gel electrophoresis.
AS patterns were identified with compound treatment for MDM2 and RBM39 transcripts. Ubiquitin (UBQ) transcripts were used as a control since these are not spliced. […] Rh18 cells were treated with either DMSO control or compounds for 4 h. Total RNA was extracted and converted to cDNA. PCR was performed using corresponding primers and PCR products were subjected to 3% agarose gel electrophoresis.

SRPK2 (h) = biological target: T2, SRPK2 (h) (Homo sapiens, UniProt P78362); experiment: Radiometric protein kinase assay (Eurofins); type: biochemical; conditions: 40 min; ATP 10 μM; read-out: SRPK2 IC50
T2 construct: purchased Eurofins, Dundee, Scotland
Description: (§1) Enzymatic biochemical activities were evaluated in radiometric protein kinase assays (Eurofins, Dundee, Scotland). Kinases are incubated with buffer, substrate and [γ-^33P]-ATP (specific activity approx. 500 cpm/pmol, concentration as required). The reaction is initiated by the addition of the MgATP mix. After incubation for 40 minutes at room temperature, the reaction is stopped by the addition of 3% phosphoric acid solution. 10 μL of the reaction is then spotted onto a P30 filtermat and washed three times for 5 minutes in 75 mM phosphoric acid and once in methanol prior to drying and scintillation counting. All compounds are prepared to 50x final assay concentration in 100% DMSO. Positive control wells contain all components of the reaction with 2% DMSO. Blank wells contain all components of the reaction, with a reference inhibitor replacing the compound of interest. Each kinase is assigned a standard assay concentration of ATP within 20 μM of its apparent Km. Compounds were screened at 1 μM in duplicate or tested at 10 concentrations at half log dilution starting from 10 μM in singlicate. Dose response curves were fitted with four parameter logistic curve to obtain IC50 values. […]
(§2) Staurosporine is used as reference for all tested enzymes except for SRPK3 (reference inhibitor: K-252a. Nocardiopsis sp), NEK2 (reference inhibitor: […]), and CK2, CK2α2, MAPK1, MAPK2 (reference inhibitor: PKR Inhibitor). See Table 1 below for additional details.

GSK3α(h) = biological target: T3, GSK3α(h) (Homo sapiens, UniProt P49840); experiment: Radiometric protein kinase assay (Eurofins); type: biochemical; conditions: 40 min; ATP 10 μM; read-out: GSK3α(h) IC50
T3 construct: purchased Eurofins, Dundee, Scotland
Description: as §1, §2

DYRK1B (h) = biological target: T4, DYRK1B (h) (Homo sapiens, UniProt Q9Y463); experiment: Radiometric protein kinase assay (Eurofins); type: biochemical; conditions: ATP 45 μM
T4 construct: purchased Eurofins, Dundee, Scotland
Description: as §1, §2

CLK1(h) = biological target: T5, CLK1(h) (Homo sapiens, UniProt P49759); experiment: Radiometric protein kinase assay (Eurofins); type: biochemical; conditions: ATP 10 μM
T5 construct: purchased Eurofins, Dundee, Scotland
Description: as §1, §2

DYRK2 (h) = biological target: T6, DYRK2 (h) (Homo sapiens, UniProt Q92630); experiment: Radiometric protein kinase assay (Eurofins); type: biochemical; conditions: ATP 15 μM
T6 construct: purchased Eurofins, Dundee, Scotland
T6 sequence (Q92630 1-601): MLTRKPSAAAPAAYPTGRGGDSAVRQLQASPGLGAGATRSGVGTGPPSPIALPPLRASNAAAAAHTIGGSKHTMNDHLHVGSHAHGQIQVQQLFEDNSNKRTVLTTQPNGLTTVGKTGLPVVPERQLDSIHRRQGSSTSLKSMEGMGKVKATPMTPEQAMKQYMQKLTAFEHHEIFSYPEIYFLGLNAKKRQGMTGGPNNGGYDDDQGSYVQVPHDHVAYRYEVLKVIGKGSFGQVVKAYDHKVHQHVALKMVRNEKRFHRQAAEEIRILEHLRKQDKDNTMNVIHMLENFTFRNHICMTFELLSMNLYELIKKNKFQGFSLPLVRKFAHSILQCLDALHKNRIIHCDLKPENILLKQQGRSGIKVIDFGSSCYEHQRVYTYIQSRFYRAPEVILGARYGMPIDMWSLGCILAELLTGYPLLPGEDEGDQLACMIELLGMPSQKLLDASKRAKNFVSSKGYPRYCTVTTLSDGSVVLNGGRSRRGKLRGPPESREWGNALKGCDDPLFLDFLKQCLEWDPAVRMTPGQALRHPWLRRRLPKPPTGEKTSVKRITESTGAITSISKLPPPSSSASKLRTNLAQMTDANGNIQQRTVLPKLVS
Description: as §1, §2

PYK2 (h) = biological target: T7, PYK2 (h) (Homo sapiens, UniProt Q14289); experiment: Radiometric protein kinase assay (Eurofins); type: biochemical; conditions: 40 min; ATP 90 μM; read-out: PYK2 IC50
T7 construct: purchased Eurofins, Dundee, Scotland
Description: as §5

[2] = test system: phosphorylation of SR proteins; experiment: Western blot of nuclear extracts, phosphor-SR proteins; conditions: HCT116 and Rh18 cells, 4 h; SD6 10 μM, compound 1 10 μM, compound 2 5 μM, compound 3 10 μM
Description: as §3, §4

GSK3β(h) = biological target: T8, GSK3β(h) (Homo sapiens, UniProt P49841); experiment: Radiometric protein kinase assay (Eurofins); type: biochemical; conditions: 40 min; ATP 15 μM; read-out: GSK3β(h) IC50
T8 construct: purchased Eurofins, Dundee, Scotland
Description: as §5

PAK4 = conditions: read-out: PAK4 IC50 (previously reported designated target data); cited from earlier work

T5 sequence (P49759 whole entry): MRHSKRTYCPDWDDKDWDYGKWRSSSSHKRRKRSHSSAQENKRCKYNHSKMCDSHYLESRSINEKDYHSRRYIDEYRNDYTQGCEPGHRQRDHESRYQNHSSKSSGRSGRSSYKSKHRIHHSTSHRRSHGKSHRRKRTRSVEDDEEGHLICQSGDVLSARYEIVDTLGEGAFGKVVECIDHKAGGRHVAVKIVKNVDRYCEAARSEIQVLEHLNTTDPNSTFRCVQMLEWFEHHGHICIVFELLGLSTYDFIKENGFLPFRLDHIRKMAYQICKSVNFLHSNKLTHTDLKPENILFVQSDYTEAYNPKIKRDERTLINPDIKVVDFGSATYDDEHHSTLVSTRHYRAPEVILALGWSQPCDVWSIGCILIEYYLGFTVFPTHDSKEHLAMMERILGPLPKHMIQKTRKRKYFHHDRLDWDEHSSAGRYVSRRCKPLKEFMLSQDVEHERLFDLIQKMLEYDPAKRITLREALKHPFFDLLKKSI
T7 sequence (Q14289 whole entry): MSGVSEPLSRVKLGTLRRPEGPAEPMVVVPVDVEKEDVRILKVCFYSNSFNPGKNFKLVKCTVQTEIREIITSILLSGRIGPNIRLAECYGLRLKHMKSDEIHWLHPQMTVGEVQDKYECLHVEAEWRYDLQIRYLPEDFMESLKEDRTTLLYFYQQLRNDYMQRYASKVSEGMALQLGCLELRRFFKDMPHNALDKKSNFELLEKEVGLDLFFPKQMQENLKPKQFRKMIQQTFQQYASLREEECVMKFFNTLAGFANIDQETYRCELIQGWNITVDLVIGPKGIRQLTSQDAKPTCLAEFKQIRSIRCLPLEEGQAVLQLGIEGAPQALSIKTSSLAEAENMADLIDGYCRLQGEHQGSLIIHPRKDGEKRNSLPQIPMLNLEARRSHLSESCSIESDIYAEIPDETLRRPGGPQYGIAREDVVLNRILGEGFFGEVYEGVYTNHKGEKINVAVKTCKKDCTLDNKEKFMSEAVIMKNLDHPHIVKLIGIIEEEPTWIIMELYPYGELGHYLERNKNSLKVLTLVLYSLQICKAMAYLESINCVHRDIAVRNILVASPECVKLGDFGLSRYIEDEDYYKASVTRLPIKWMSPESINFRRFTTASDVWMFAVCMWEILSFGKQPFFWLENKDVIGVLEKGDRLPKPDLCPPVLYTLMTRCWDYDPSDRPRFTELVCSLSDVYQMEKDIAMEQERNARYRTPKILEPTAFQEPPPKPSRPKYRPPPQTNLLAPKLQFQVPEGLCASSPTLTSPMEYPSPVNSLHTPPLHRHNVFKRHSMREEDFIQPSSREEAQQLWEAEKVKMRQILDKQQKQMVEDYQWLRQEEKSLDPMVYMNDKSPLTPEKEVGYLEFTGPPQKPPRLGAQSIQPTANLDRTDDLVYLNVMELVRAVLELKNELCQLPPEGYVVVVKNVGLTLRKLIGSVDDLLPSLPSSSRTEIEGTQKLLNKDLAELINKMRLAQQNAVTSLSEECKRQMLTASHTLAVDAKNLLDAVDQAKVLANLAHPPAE
T4 sequence (Q9Y463 whole entry): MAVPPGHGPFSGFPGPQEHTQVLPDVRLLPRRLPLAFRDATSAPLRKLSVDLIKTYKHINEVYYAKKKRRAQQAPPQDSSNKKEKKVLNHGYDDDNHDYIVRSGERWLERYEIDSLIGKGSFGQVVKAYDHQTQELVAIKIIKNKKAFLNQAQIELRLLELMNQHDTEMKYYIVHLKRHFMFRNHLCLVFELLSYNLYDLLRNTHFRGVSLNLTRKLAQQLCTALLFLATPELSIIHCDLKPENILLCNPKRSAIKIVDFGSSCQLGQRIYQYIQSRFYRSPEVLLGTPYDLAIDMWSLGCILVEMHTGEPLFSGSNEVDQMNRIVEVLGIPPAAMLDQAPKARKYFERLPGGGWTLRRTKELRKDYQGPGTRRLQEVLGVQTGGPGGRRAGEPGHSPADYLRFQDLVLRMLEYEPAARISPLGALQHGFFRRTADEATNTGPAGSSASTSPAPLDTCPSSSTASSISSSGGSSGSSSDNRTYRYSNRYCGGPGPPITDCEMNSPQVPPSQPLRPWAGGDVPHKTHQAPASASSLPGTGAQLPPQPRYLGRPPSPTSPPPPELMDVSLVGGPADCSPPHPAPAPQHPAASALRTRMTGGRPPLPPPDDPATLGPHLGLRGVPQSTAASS
T2 sequence (P78362 whole entry): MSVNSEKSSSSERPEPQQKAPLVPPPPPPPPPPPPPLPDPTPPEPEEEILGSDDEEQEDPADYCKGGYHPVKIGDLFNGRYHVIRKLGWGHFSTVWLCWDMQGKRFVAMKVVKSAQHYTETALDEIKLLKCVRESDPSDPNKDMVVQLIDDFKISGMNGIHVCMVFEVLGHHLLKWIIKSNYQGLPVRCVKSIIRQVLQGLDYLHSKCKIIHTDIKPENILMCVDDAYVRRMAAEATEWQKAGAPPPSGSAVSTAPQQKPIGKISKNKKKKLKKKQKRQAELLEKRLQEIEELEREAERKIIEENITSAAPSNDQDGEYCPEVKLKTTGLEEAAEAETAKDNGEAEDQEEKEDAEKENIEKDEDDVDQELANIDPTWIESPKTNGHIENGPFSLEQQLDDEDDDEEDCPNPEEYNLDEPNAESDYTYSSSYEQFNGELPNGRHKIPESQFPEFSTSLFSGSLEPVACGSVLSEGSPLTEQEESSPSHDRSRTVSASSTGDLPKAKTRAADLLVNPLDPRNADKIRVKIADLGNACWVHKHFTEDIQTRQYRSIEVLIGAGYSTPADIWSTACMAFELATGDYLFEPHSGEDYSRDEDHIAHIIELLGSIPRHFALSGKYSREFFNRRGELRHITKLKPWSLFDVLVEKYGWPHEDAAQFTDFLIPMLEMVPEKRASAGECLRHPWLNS
T3 sequence (P49840 whole entry): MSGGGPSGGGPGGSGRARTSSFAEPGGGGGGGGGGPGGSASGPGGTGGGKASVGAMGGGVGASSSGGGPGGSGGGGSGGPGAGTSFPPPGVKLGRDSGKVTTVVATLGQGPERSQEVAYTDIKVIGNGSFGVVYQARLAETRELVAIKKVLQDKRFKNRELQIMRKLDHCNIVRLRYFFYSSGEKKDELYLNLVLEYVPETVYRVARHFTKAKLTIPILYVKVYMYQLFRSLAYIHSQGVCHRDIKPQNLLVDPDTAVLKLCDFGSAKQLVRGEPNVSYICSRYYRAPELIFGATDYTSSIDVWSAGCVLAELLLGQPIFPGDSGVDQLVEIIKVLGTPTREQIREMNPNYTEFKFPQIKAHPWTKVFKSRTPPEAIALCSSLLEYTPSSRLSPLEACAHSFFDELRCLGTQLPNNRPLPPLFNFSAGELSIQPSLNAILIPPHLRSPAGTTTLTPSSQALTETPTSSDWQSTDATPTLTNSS
T8 sequence (P49841 whole entry): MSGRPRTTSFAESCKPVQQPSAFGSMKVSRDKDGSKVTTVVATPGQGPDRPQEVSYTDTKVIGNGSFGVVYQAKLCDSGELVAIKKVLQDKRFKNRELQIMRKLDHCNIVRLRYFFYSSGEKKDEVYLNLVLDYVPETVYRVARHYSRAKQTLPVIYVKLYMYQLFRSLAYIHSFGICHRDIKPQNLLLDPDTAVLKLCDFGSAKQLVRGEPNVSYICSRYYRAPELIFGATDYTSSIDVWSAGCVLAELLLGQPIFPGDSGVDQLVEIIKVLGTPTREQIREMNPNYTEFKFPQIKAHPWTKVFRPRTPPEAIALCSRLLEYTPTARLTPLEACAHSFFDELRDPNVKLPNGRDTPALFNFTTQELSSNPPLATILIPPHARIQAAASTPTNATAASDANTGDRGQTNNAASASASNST
T1 sequence (O96013 whole entry): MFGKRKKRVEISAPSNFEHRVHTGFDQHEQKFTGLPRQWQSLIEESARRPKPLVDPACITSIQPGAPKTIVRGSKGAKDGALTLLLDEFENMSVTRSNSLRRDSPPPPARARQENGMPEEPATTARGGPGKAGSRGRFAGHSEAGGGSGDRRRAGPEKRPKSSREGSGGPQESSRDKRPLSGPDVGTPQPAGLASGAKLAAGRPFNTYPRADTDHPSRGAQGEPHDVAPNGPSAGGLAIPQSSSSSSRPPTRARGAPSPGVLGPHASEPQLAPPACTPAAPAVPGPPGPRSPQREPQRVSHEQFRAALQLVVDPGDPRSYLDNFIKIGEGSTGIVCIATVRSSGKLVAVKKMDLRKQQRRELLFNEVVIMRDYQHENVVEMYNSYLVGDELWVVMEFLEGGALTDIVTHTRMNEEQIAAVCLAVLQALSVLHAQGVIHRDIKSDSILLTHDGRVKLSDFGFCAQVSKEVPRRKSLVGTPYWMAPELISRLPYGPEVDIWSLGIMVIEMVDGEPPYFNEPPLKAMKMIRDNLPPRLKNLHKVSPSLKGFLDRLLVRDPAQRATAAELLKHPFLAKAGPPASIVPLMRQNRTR

For `CNC(=O)c1nn(C)c2c1C(C)(C)Cc1cnc(Nc3ccc(N4CCN(C)CC4)cc3)nc1-2` [Compound 1, milciclib], the “Effect on phosphorylation of SF3B1 (immunoblot)” value (phosphorylation of SF3B1) was “reduced phosphorylation of both SR and SF3B1 proteins significantly”, the inhibition at 1 µM (PAK4 (h)) was under 50% and the “MDM2 alternative splicing (AS) pattern by RT-PCR” value [1] was “AS isoform of 785 bp was dominant”. It also gave an inhibition at 1 µM (SRPK2 (h)) of under 50%, an inhibition at 1 µM (GSK3α(h)) of under 50% and an IC50 (DYRK1B (h)) of 5 nM. It also gave an IC50 (CLK1(h)) of 3 nM, an IC50 (DYRK2 (h)) of 48 nM and an inhibition at 1 µM (PYK2 (h)) of under 50%. The “Effect on phosphorylation of SR proteins (immunoblot)” value [2] was “reduced phosphorylation of both SR and SF3B1 proteins significantly” and the inhibition at 1 µM (GSK3β(h)) was under 50%.

For `Cc1nc(Nc2[nH]nc3c2CN(C(=O)N[C@H](CN(C)C)c2ccccc2)C3(C)C)c2sccc2n1` [Compound 2, PF-3758309], the IC50 (PAK4) is given as […], the “Effect on phosphorylation of SF3B1 (immunoblot)” value (phosphorylation of SF3B1) is given as “reduced phosphorylation of both SR and SF3B1 proteins significantly” and the “MDM2 alternative splicing (AS) pattern by RT-PCR” value [1] is given as “AS isoform of 785 bp was dominant”. It also gave an inhibition at 1 µM (SRPK2 (h)) of under 50%, an inhibition at 1 µM (GSK3α(h)) of under 50% and an inhibition at 1 µM (DYRK1B (h); 40 min, read-out: DYRK1B IC50) of under 50%. It also gave an IC50 (CLK1(h)) of 27 nM, an inhibition at 1 µM (DYRK2 (h); 40 min, read-out: DYRK2 IC50) of under 50% and an inhibition at 1 µM (PYK2 (h)) of under 50%. For the same compound, the “Effect on phosphorylation of SR proteins (immunoblot)” value [2] was “reduced phosphorylation of both SR and SF3B1 proteins significantly” and the inhibition at 1 µM (GSK3β(h)) was under 50%.
